Laboratory results as given in patent US10722575B2, “Use of 1,3-diphenylprop-2-en-1-one derivatives for treating liver disorders” (GENFIT, priority 2009, dated 2020).

How the values were obtained:
Format in all cases: in vivo
ob/ob mice [1] = experiment: ob/ob mice, hepatic gene expression by quantitative RT-PCR after 26 days of treatment; settings: 26 days daily gavage, Cpd 29 10 and 30 mg/kg/day, Fenofibrate 100 mg/kg/day, Rosiglitazone 10 mg/kg/day
Experimental: The compounds of the General Formula (I) were tested in a murine model of type II diabetes, the ob/ob mice. Mice were daily orally treated with the Compound 29 of WO 2004/005233 at two different doses (10 and 30 mg/kg/day) and with the prototypical PPARalpha- and PPARgamma-specific reference compounds (Fenofibrate at 100 mg/kg/day and Rosiglitazone at 10 mg/kg/day respectively). After 26 days of treatment, animals were sacrificed and plasma samples and livers were harvested. Hepatic expression of genes that are known to be implicated in the liver inflammation process was evaluated and plasmatic levels of ALAT were measured (Panels A-C). […]
Male ob/ob mice (8 weeks of age) were purchased from Charles River (L'Arbresle, France) and were kept on a 12-hour light/dark cycle at a constant temperature of 20±3° C. After a 1 week acclimation, mice were separated in groups of 8 animals selected such that the distribution of their body weight and their 6 hours fasting glycemia determined before the experiment were uniform. […]
Total RNA was isolated from frozen livers using the NucleoSpin® 96 RNA kit (Macherey Nagel), according to the manufacturer's instructions. […] Quantitative PCR was then carried out using the MyiQ Single-Color Real-Time PCR Detection System (Biorad). […]

ob/ob mice [2] = experiment: ob/ob mice, plasma ALAT after 26 days of treatment; settings: 26 days daily gavage; Cpd 29 30 mg/kg/day, Rosiglitazone 10 mg/kg/day; FIG. 2C
Experimental: The compounds of the General Formula (I) were tested in a murine model of type II diabetes, the ob/ob mice. […] After 26 days of treatment, animals were sacrificed and plasma samples and livers were harvested. Hepatic expression of genes that are known to be implicated in the liver inflammation process was evaluated and plasmatic levels of ALAT were measured (Panels A-C). Statistical analysis was performed using unpaired T-test with three p values that defines statistical relevance (* means p<0.05; ** means p<0.01; *** means p<0.001).
Male ob/ob mice (8 weeks of age) were purchased from Charles River (L'Arbresle, France) and were kept on a 12-hour light/dark cycle at a constant temperature of 20±3° C. After a 1 week acclimation, mice were separated in groups of 8 animals selected such that the distribution of their body weight and their 6 hours fasting glycemia determined before the experiment were uniform. Animals were fed a standard chow diet (R03, SAFE) and treated during 26 days with the compounds of interest. […] Control animals were treated with vehicle only (Carboxymethlycellulose 1%+Tween-80 0.1%). Animals had access to food and water ad libitum.
At the end of the studies, the animals were weighed and sacrificed under anesthesia. […]

[3] = test system: hApoE2 KI/PPARalpha KO mice; experiment: hApoE2 KI/PPARalpha KO mice on Western diet, hepatic gene expression by quantitative RT-PCR; settings: 30 mg/kg/day by gavage, 6 weeks
Experimental: (§1) The compounds of the General Formula (I) were tested in vivo in a high fat diet mice model. Dyslipidemic “humanized” hApoE2 KI deficient for PPARalpha were fed a Western diet and treated during 6 weeks. The compounds of interest, including the Compound 29 of WO 2004/005233 at 30 mg/kg/day and the Compound 1 of WO 2007/147879 at 30 mg/kg/day were orally administrated by gavage. At the end of the protocol, animals were sacrificed, livers were harvested and the hepatic expression of relevant genes implicated in the liver inflammation and the fibrosis processes were evaluated by quantitative RT-PCR. In parallel, liver triglycerides contents were evaluated (Panels A-D). Statistical analysis was performed as indicated for FIG. 1.
(§2) Animals were fed a Western diet (20% saturated fat and 0.2% cholesterol, Harlan Teklad TD88137) during 2 weeks in the first study, that involved the daily administration of Cpd 29 (at 30 mg/kg/day by oral gavage), and during 6 weeks in the second study, that involved the daily administration of Compound 1 of WO 2007147879 (Cpd1, at 30 mg/kg/day by oral gavage). Control animals were treated with vehicle only (Carboxymethlycellulose 1%+Tween-80 0.1%). Animals had access to food and water ad libitum.
At the end of the studies, the animals were weighed and sacrificed under anesthesia. Blood was collected from the retro-orbital sinus; plasma was obtained by centrifugation (4 000 rpm, at 4° C. for 15 min) and subsequently frozen and stored at −20° C. Tissues and livers were isolated and snap-frozen in liquid nitrogen and stored at −80° C. for subsequent analysis (gene expression and biochemistry) or fixed in 4% paraformaldehyde for histology.
Total RNA was isolated from frozen livers using the NucleoSpin® 96 RNA kit (Macherey Nagel), according to the manufacturer's instructions. Reverse transcription was performed on 1 μg of total RNA by action of 1 μl of MMLV-RT enzyme (Invitrogen) during 1 hour at 37° C. in a total volume of 30 μl. The reaction conditions were 1× buffer (Invitrogen), 1.5 mM DTT (Invitrogen), 0.18 mM dNTPs (Promega), 200 ng pdN6 (Amersham), 30U RNase inhibitor (Promega). Quantitative PCR was then carried out using the MyiQ Single-Color Real-Time PCR Detection System (Biorad). Briefly PCR reactions were performed in 96 well plates on 5 μl of diluted reverse transcription mix using the iQ SYBR Green Supermix kit. The reaction conditions were: 25 μl of volume reaction, 3 mM of MgCl2, and 0.5 μl of each reverse and forward primer solutions (10 pMol), Tm of 60° C.
The quantity of fluorescence emitted is directly proportional to the quantity of complementary DNA present at the start of the reaction and amplified during the PCR. The relative levels of expression were determined using the standard curve for each transcript. The results were then normalized in regard to the signals obtained with the 36B4 control (a reference transcript for hepatic gene expression). The induction factor, i.e. the ratio between the relative signal induced by the compound according to the invention and the average of the values relating to the control group, was then calculated for each sample. The higher this factor, the more the compound promotes target gene expression. The final result is depicted as the average of the induction values in each experimental group.
(§3) In another study, the liver-specific anti-inflammatory and anti-fibrotic properties effects of Cpd 29 and Compound 1 of WO 2007/147879 (Cpd 1) were evaluated in the hApoE2 KI/PPARalpha KO mice that were fed a Western diet and daily treated with the selected compounds during 6 weeks.

[4] = test system: hApoE2 KI/PPARalpha KO mice; experiment: hApoE2 KI/PPARalpha KO mice on Western diet, hepatic lipid analysis (liver triglycerides); settings: 30 mg/kg/day by gavage, 6 weeks, FIG. 4D
Experimental: as §1
as §2, with “Control animals were treated with vehicle only (Carboxymethlycellulose 1%+Tween-80 0.1%). Animals had access to food and water ad libitum.” left out
as §3

1-[4-methylthiophenyl]-3-[3,5-dimethyl-4-carboxydimethylmethyloxyphenyl]prop-2-en-1-one [Cpd 29]
hepatic expression of TNFalpha (ob/ob mice [1]; FIG. 2A): inhibited the expression of this cytokine in a dose-response manner
hepatic expression level of TGFbeta (ob/ob mice [1]; FIG. 2B): inhibited the expression of this growth factor in a dose-response manner
plasmatic levels of ALAT (ob/ob mice [2]): statistically significant decrease
liver expression of TNFα ([3]; FIG. 4A): inhibited
liver expression of TGFβ ([3]; FIG. 4B): inhibited
liver expression of collagen ([3]; FIG. 4C): inhibited
triglycerides accumulation in the liver [4]: prevented
